Patent publication US20260130850A1, “TRANSDERMAL DELIVERY FORMULATIONS AND METHODS FOR THE MANUFACTURE THEREOF” (LIFEACTIVE, INC., priority 2023, published 2026)

Assays:
[1] = in H2O at ~15-20° C.; Table 2 weak organic acids; cited from earlier work
[2] = Acidic dissociation constants (pKa) of strong and weak organic acids; assay type: physicochemical; conditions: water; in H2O at ~15-20° C.; Table 2 weak organic acids; read-out: Median pKa
Text: As used herein, the term “pKa” refers to acid dissociation constant (Ka) of a solution. […] The quantitative behavior of acids and bases in solution can be understood only if their pKa values are known. pKa describes the acidity of a particular molecule. It measures the strength of an acid by how tightly a proton is held by a Bronsted acid. The lower the value of pKa, the stronger the acid and the greater its ability to donate its protons. describe the acidity of a particular molecule Ka denotes the acid dissociation constant. It measures how completely an acid dissociates in an aqueous solution. The larger the value of Ka, the stronger the acid as acid largely dissociates into its ions and has lower pKa value.

Compound | pKa1 [1] | pKa [2] | pKa3 [1]
O=c1[nH]c(=O)c2[nH]c(=O)[nH]c2[nH]1 [Uric Acid] | 5.6 | 5.6 | –
Citric Acid | – | – | 6.40
